In brackets after ≈: the same amount, converted by molar mass. Entries after “also recorded” stand apart in the source; their conditions may differ.
Experiments:
[1] = Pirfenidone IC50 in vitro
[2] = tested on: Engineered connective tissues (ECT); assay: ECT stiffness (Young's modulus) by ultimate tensile testing; assay type: cell-based, human; conditions: 5 ng/ml TGF-β1, day 10 of the drug effect testing phase (absolute day 13), 8 replicates
Description: Reference ECT were generated and treated similar as described herein in Example 1. In contrast to the pole deflection analysis disclosed in Example 1 herein, 8 ECT were harvested for the ultimate tensile testing at the moment when the plateau was reached and before a drug solvent was applied with or without TGF-β1. Residual ECT were cultured for further 10 days. Then, macroscopic images were taken from the ECT on the poles to estimate their cross-sectional areas based on the observed ECT thicknesses. Ultimate tensile testing was performed with a dynamic mechanical analyzer (DMA). Therefore, ECT were loaded onto two hooks clamped to a DMA in a 37° C. tempered organ bath filled with PBS. Then, uniaxial stretch at a constant linear rate of approximately 1% (0.03 mm/s) was applied until the ECT ruptured. The recorded force traces were converted into stress-strain curves. The Young's modulus representing the stiffness of the ECT was analyzed by determining the slope of the linear part of curve within the elastic region (FIG. 3A). All measurements were performed in 8 replicates. […]

[3] = tested on: Engineered connective tissues (ECT); assay: ECT contraction by pole deflection analysis (reference ECT +/- TGF-β1); assay type: cell-based, human; conditions: 5 ng/ml TGF-β1 applied at day 4, day 10 of the drug effect testing phase (absolute day 13), 6 technical replicates
Excerpt: The general experimental procedure was identical for all used cells, including primary fibroblasts and iPSC-StC. Supporting information in view of the ECT model, in particular its generation, may also be found in Santos et al. (2021, Fibroblast Derived Human Engineered Connective Tissue for Screening Applications. J. Vis. Exp. e62700, doi: 10.3791/62700, PMID: 34487119), Santos et al. (2022, Using different geometries to modulate the cardiac fibroblast phenotype and the biomechanical properties of engineered connective tissues. Biomater Adv. 139:213041, PMID: 35909053), and EP20188364. In particular, acid solubilized, collagen type 1 was mixed 1:1 with 2× DMEM containing 20% fetal calf serum and antibiotics. […]
Pole deflection measurement and platforms are well-established in the art, cf. e.g. WO2017/207431 (also granted as DE 10 2016 110 328 B3). […] Pole deflection as a function of ECT compaction was calculated as follows: 100×(pole distanceday 0-pole distanceday x)/pole distanceday 0.
Reference ECT were analyzed, which were treated with a drug solvent in absence or presence of TGF-β1, with TGF-β1 application serving as additional reference with respect to pro-fibrotic drug characterization. […]

[4] = tested on: BioEngineered Neuronal Organoids (BENOs); assay: Multi-electrode array (MEA) recording of BENO network activity; assay type: cell-based, human; conditions: for Burst Frequency (Hz) / Interspike Interval in a burst / Network Burst (NB) Frequency / Number of Active Electrodes / Weighted Mean Firing Rate (Hz) / Burst Frequency (Hz), effect vs reference BENO / Interspike Interval in a burst (s), effect vs reference BENO / Network Burst (NB) Frequency, effect vs reference BENO / Number of Active Electrodes, effect vs reference BENO / Weighted Mean Firing Rate (Hz), effect vs reference BENO: CNQX 15 μM; for Burst frequency, change in words / Weighted mean firing rate, change in words: text and figure legend
Excerpt: BioEngineered Neuronal Organoids (BENOs) were generated in line with the BENO generation protocol provided in Zafeiriou et al. (Nature Communications, 2020, 11:3791, https://doi.org/10.1038/s41467-020-17521-w).
The method used for this illustrative example was a multi-electrode array (MEA) recording. In particular, six-well plates with 64 platinum microelectrodes arrays per well (0.04 MQ/microelectrode, 30 μm microelectrode diameter, 200 μm spacing) were coated with Matrigel™ 1:120 diluted in PBS for 1 h at room temperature prior seeding. One or two slices (thickness: 300 μm) were placed into a MEA well and immobilized by a concentrically coiled tungsten ring. 10-15 min recordings/2 h were performed every other day for up to 60 days using a Maestro pro MEA system (Axion Biosystems). Data recordings were automatically scheduled with the Axion Software (AxIS Navigator) using the manufacturer's Spontaneous Neural Configuration. Data analysis was performed using the manufacturer's standalone tools, Neural Metric Tool, and AxIS Metric Plotting Tool (Axion Biosystems). […] Spike bursts were identified using an ISI threshold requiring a minimum number of five spikes with a maximum ISI of 100 ms. Network Bursts (NB) were identified by an envelope algorithm with a threshold of 1.25, minimum IBI interval of 100 ms, 75% burst inclusion with a minimum of 10% active electrodes.

[5] = BENO day 50 to day 60, 10 min treatment, PIC 58 μM, 4 tissues
[6] = BENO day 60, 10 min treatment, PIC 58 μM, threshold 2× SD
[7] = BENO day 60, treated vs reference
[8] = BENO day 60, treated vs reference, listed as Picrotoxin

Row | Compound | Burst Frequency (Hz) [4, 5] [Hz] | Interspike Interval in a burst [4, 5] [s] | Network Burst (NB) Frequency [4, 5] | Number of Active Electrodes [4, 5] | Weighted Mean Firing Rate (Hz) [4, 5] [Hz] | Burst Frequency (Hz), effect vs reference BENO [4, 6] | Interspike Interval in a burst (s), effect vs reference BENO [4, 6] | Network Burst (NB) Frequency, effect vs reference BENO [4, 6] | Number of Active Electrodes, effect vs reference BENO [4, 6] | Weighted Mean Firing Rate (Hz), effect vs reference BENO [4, 6] | Network burst frequency, change in words [4, 7] | Burst frequency, change in words [4, 7] | Weighted mean firing rate, change in words [4, 7] | further results
1 | Cc1ccc(=O)n(-c2ccccc2)c1 [Pirfenidone] | – | – | – | – | – | – | – | – | – | – | – | – | – | IC50 [1]: 430 µg/mL (≈ 2320 µM)
2 | TGF-B1: pro-fibrotic cytokine applied at 5 ng/ml to reference ECT | – | – | – | – | – | – | – | – | – | – | – | – | – | Young's modulus (kPa) [2]: 76.4 kPa; Contraction (%) [3]: 39.4%
3 | C=C(C)[C@@H]1[C@H]2OC(=O)[C@@H]1[C@]1(O)C[C@H]3OC34C(=O)O[C@H]2[C@@]41C.CC(C)(O)[C@@H]1[C@H]2OC(=O)[C@@H]1[C@]1(O)C[C@H]3OC34C(=O)O[C@H]2[C@@]41C (stereo partly shown) [PIC, Picrotoxin] | 0.2 | 0.02 | 0.09 | 23 | 4.7 | ↑ (>2SD increase) | ↔ (<2SD change) | ↑ (>2SD increase) | ↔ (<2SD change) | ↑ (>2SD increase) | increased | increase | increase | Interspike Interval in a NB [4, 5]: 0.002 s; NB Duration [4, 5]: 1.4 ± 0.4 s; NB percentage [4, 5]: 43 ± 42; Spontaneous activity, change in words ([4]; BENO day 60): increased; Interspike Interval in a NB (s), effect vs reference BENO [4, 6]: ↔ (<2SD change); NB Duration (s), effect vs reference BENO [4, 6]: ↑ (>2SD increase); NB percentage, effect vs reference BENO [4, 6]: ↔ (<2SD change); Network burst duration (network burst complexity), change in words [4, 7]: decreased; Burst frequency, change in words [4, 8]: increases; Weighted mean firing rate, change in words [4, 8]: increased
4 | N#Cc1cc2[nH]c(=O)c(=O)[nH]c2cc1[N+](=O)[O-] [CNQX, Cyanquixalin] | 0.02 | 0.03 | 0 | 2 | 0.6 | ↔ (<2SD change) | ↑ (>2SD increase) | ↓ (>2SD decrease) | ↓ (>2SD decrease) | ↓ (>2SD decrease) | decrease | reduced to the predetermined threshold of 2× SD, though not exceeding it; also recorded: decrease; also recorded: reduced | decrease; also recorded: reduced | Interspike interval in a burst, change in words ([4]; BENO day 60, after treatment): higher
